In US6867192B1, “Compounds useful in the treatment of inflammatory diseases” (priority 1998, dated 2005):
≈ marks a conversion by molar mass, not a printed value.

Test: Solubility in water
Type: physicochemical

- solubility: 10 µg/mL (≈ 16.8 µM)
SMILES: Cc1ccccc1OCC(=O)N[C@@H](CC(C)C)C(=O)N[C@@H](Cc1ccc(OC(=O)N2CCC(C(N)=O)CC2)cc1)C(=O)O [Example 27, (2S)-3-[4-({[4-(Aminocarbonyl)-1-piperidinyl]carbonyl}oxy)phenyl]-2-[((2S)-4-methyl-2-{[2-(2-methylphenoxy)acetyl]amino}pentanoyl)amino]propanoic acid]
